Measurements: article PMC3914206

Tests used:
Type in all cases: binding
Conditions in all cases: Compound Concentration 10 µM
panel of 442 kinases [1] = target: T1, panel of 442 kinases (Homo sapiens, UniProt P24723)
T1 construct: purchased KINOMEscan
Source text: (§1) We assessed the selectivity of members of this scaffold using the KINOMEscan methodology across a near comprehensive panel of 442 kinases [[18,27]].

panel of 442 kinases [2] = target: T2, panel of 442 kinases (Homo sapiens, UniProt O75582)
T2 construct: purchased KINOMEscan
Source text: as §1

panel of 442 kinases [3] = target: T3, panel of 442 kinases (Homo sapiens, UniProt Q8NG66)
T3 construct: purchased KINOMEscan
T3 sequence (Q8NG66 1-645): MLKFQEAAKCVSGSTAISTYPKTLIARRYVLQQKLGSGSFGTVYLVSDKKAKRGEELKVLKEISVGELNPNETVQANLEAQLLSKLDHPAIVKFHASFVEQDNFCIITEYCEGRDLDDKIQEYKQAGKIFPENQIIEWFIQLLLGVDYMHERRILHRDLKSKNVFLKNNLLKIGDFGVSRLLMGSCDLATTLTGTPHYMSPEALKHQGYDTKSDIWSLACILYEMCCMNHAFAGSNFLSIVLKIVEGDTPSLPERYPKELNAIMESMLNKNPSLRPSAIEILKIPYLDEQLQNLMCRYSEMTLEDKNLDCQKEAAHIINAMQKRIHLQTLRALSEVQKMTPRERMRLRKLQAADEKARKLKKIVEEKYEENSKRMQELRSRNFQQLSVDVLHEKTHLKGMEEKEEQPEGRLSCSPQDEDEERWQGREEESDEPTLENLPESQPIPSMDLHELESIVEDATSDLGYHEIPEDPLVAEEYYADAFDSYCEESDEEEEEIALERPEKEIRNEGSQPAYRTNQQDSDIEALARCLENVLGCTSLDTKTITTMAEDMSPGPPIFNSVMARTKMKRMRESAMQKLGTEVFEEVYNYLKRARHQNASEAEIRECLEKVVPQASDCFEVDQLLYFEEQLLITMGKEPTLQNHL
Source text: as §1

T2 sequence (O75582 whole entry): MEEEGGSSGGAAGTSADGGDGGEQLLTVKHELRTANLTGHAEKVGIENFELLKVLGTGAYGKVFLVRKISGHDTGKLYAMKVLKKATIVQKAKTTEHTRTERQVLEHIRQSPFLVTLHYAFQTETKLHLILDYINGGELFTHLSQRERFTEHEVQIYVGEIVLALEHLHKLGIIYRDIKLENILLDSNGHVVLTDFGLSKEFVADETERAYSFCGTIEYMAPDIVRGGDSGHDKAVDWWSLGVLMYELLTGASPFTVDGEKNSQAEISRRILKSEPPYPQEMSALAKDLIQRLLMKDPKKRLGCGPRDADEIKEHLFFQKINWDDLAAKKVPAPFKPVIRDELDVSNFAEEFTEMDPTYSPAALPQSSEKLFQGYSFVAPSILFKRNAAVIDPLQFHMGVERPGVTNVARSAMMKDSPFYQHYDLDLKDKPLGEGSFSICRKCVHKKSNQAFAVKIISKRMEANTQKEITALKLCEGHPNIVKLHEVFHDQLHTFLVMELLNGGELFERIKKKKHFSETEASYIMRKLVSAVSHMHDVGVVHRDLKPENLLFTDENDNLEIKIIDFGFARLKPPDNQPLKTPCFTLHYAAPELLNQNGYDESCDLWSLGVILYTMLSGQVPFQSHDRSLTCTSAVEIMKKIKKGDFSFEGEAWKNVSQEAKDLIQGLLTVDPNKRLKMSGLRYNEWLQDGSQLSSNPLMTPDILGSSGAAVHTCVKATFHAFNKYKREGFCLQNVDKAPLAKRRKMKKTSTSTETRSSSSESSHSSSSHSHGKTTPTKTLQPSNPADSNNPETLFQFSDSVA
T1 sequence (P24723 whole entry): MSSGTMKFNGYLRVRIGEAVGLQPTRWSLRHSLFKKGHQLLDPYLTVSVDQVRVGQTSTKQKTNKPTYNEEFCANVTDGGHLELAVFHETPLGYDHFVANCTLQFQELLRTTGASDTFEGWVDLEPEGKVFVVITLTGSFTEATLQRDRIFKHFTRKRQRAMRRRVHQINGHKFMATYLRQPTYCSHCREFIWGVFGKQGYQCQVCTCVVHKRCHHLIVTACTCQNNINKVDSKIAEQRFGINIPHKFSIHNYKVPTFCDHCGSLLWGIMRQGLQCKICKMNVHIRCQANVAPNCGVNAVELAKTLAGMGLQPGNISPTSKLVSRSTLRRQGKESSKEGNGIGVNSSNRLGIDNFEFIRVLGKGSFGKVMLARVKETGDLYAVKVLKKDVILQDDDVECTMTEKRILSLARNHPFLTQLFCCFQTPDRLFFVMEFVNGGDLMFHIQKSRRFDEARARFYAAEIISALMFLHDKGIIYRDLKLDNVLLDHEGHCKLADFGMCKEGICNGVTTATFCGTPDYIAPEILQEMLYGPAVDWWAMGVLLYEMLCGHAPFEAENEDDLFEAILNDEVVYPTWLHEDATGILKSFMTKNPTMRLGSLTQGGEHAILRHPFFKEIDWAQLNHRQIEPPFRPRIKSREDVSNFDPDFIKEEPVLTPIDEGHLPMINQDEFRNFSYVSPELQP

Question: CCOc1cc(C(=O)N2CCC(N3CCN(C)CC3)CC2)ccc1Nc1ncc2c(n1)N(C1CCCC1)c1ccccc1C(=O)N2C [Compound 26] was tested. Which “KINOMEscan: PRKCH” value (panel of 442 kinases [1]) did it give?
Answer: 100

Question: What about the “KINOMEscan: RPS6KA5(Kin.Dom.1-N-terminal)” value (panel of 442 kinases [2]) of the same compound?
Answer: 100

Question: And the “KINOMEscan: RPS6KA5(Kin.Dom.2-C-terminal)” value (panel of 442 kinases [2])?
Answer: 86

Question: And the “KINOMEscan: NEK11” value (panel of 442 kinases [3])?
Answer: 100

Question: Which results are given for COc1cc(C(=O)N2CCC(N3CCN(C)CC3)CC2)ccc1Nc1ncc2c(n1)N(C1CCCC1)c1ccccc1C(=O)N2C [Compound 25, 11-cyclopentyl-2-((2-methoxy-4-(4-(4-methylpiperazin-1-yl)piperidine-1-carbonyl)phenyl)amino)-5-methyl-5H-benzo[e]pyrimido[5,4-b][1,4]diazepin-6(11H)-one]?
Answer: KINOMEscan: PRKCH (panel of 442 kinases [1]): 100; KINOMEscan: RPS6KA5(Kin.Dom.1-N-terminal) (panel of 442 kinases [2]): 100; KINOMEscan: RPS6KA5(Kin.Dom.2-C-terminal) (panel of 442 kinases [2]): 100; KINOMEscan: NEK11 (panel of 442 kinases [3]): 100

Question: COc1cc(C(=O)N2CCC(N3CCN(C)CC3)CC2)ccc1Nc1ncc2c(n1)N1CCc3cccc(c31)C(=O)N2C [Compound 24] was tested. Which “KINOMEscan: PRKCH” value (panel of 442 kinases [1]) did it give?
Answer: 84

Question: And the “KINOMEscan: RPS6KA5(Kin.Dom.2-C-terminal)” value (panel of 442 kinases [2])?
Answer: 43

Question: How did the “KINOMEscan: PRKCH” value (panel of 442 kinases [1]) turn out when COc1cc(C(=O)N2CCC(N3CCN(C)CC3)CC2)ccc1Nc1ncc2c(n1)N(C)c1ccccc1C(=O)N2C [15 (LRRK2-IN-1)] was run?
Answer: 100

Question: And the “KINOMEscan: RPS6KA5(Kin.Dom.1-N-terminal)” value (panel of 442 kinases [2])?
Answer: 96

Question: What about the “KINOMEscan: RPS6KA5(Kin.Dom.2-C-terminal)” value (panel of 442 kinases [2]) of the same compound?
Answer: 92

Question: What about the “KINOMEscan: NEK11” value (panel of 442 kinases [3]) of the same compound?
Answer: 100
